Measured values: PubChem BioAssay AID2060492 (Molecular Pharmacology Branch, DTP, NCI, 2025)

Tested on: 695427-040-R-J1-PDC complex spheroids, viability percent T/C
Test: Anticancer human tumor 695427-040-R-J1-PDC patient-derived colon adenocarcinoma cell line growth inhibition [GQUAD]
Conditions: for IC50: curve of first compound; for viability, T/C: stronger effect = lower value
Method in brief: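 Viability of tumor cells grown as complex spheroids with endothelial and stromal cells, exposed to drug combinations. Top concentration at or near clinical Cmax (else 10 microM), diluted in half-log increments.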

[1] = second compound 0.0316 µM, first compound 0.0316 µM
[2] = second compound 0.0316 µM, first compound 0.1 µM
[3] = second compound 0.0316 µM, first compound 0.316 µM
[4] = second compound 0.0316 µM, first compound 1 µM
[5] = second compound 0.0316 µM, first compound 3.16 µM
[6] = second compound 0.0316 µM, first compound 10 µM
[7] = second compound 0.1 µM, first compound 0.0316 µM
[8] = second compound 0.1 µM, first compound 0.1 µM
[9] = second compound 0.1 µM, first compound 0.316 µM
[10] = second compound 0.1 µM, first compound 1 µM
[11] = second compound 0.1 µM, first compound 3.16 µM
[12] = second compound 0.1 µM, first compound 10 µM
[13] = second compound 0.316 µM, first compound 0.0316 µM
[14] = second compound 0.316 µM, first compound 0.1 µM
[15] = second compound 0.316 µM, first compound 0.316 µM
[16] = second compound 0.316 µM, first compound 1 µM
[17] = second compound 0.316 µM, first compound 3.16 µM
[18] = second compound 0.316 µM, first compound 10 µM
[19] = second compound 1 µM, first compound 0.0316 µM
[20] = second compound 1 µM, first compound 0.1 µM
[21] = second compound 1 µM, first compound 0.316 µM
[22] = second compound 1 µM, first compound 1 µM
[23] = second compound 1 µM, first compound 3.16 µM
[24] = second compound 1 µM, first compound 10 µM
[25] = second compound 3.16 µM, first compound 0.0316 µM
[26] = second compound 3.16 µM, first compound 0.1 µM
[27] = second compound 3.16 µM, first compound 0.316 µM
[28] = second compound 3.16 µM, first compound 1 µM
[29] = second compound 3.16 µM, first compound 3.16 µM
[30] = second compound 3.16 µM, first compound 10 µM
[31] = second compound 10 µM, first compound 0.0316 µM
[32] = second compound 10 µM, first compound 0.1 µM
[33] = second compound 10 µM, first compound 0.316 µM
[34] = second compound 10 µM, first compound 1 µM
[35] = second compound 10 µM, first compound 3.16 µM
[36] = second compound 10 µM, first compound 10 µM
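Note: spheroids exposed to compounds for seven days before readout.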

SMILES: C#Cc1c(F)ccc2cc(O)cc(-c3ncc4c(N5CC6CCC(C5)N6)nc(OCC56CCCN5CC(F)C6)nc4c3F)c12 (stereo unspecified) + Cc1[nH]c2ccc(F)cc2c1-c1nc2c3cccnc3c3ncccc3c2[nH]1
- IC50 (second compound 0.0316 µM): 1.58 µM
- IC50 (second compound 0.1 µM): 1.28 µM
- IC50 (second compound 0.316 µM): 1.01 µM
- IC50 (second compound 1 µM): 0.932 µM
- IC50 (second compound 3.16 µM): 0.444 µM
- IC50 (second compound 10 µM): 0.438 µM
- viability, T/C [1]: 105%
- viability, T/C [2]: 95.3%
- viability, T/C [3]: 99.3%
- viability, T/C [4]: 75.5%
- viability, T/C [5]: 10.3%
- viability, T/C [6]: 11.7%
- viability, T/C [7]: 117%
- viability, T/C [8]: 91.6%
- viability, T/C [9]: 93.7%
- viability, T/C [10]: 62.3%
- viability, T/C [11]: 7.36%
- viability, T/C [12]: 8.21%
- viability, T/C [13]: 102%
- viability, T/C [14]: 96.7%
- viability, T/C [15]: 80.4%
- viability, T/C [16]: 55.7%
- viability, T/C [17]: 5.93%
- viability, T/C [18]: 5.99%
- viability, T/C [19]: 86.8%
- viability, T/C [20]: 84.5%
- viability, T/C [21]: 82.5%
- viability, T/C [22]: 48%
- viability, T/C [23]: 3.1%
- viability, T/C [24]: 2.8%
- viability, T/C [25]: 73.6%
- viability, T/C [26]: 73.2%
- viability, T/C [27]: 62.5%
- viability, T/C [28]: 19.9%
- viability, T/C [29]: 1.77%
- viability, T/C [30]: 1.26%
- viability, T/C [31]: 70.8%
- viability, T/C [32]: 60.4%
- viability, T/C [33]: 61.4%
- viability, T/C [34]: 21.9%
- viability, T/C [35]: 1.1%
- viability, T/C [36]: 1.13%

SMILES: CCCS(=O)(=O)Nc1ccc(F)c(C(=O)c2c[nH]c3ncc(-c4ccc(Cl)cc4)cc23)c1F + Cc1[nH]c2ccc(F)cc2c1-c1nc2c3cccnc3c3ncccc3c2[nH]1
- IC50 (second compound 0.0316 µM): > 10 µM
- IC50 (second compound 0.1 µM): > 10 µM
- IC50 (second compound 0.316 µM): > 10 µM
- IC50 (second compound 1 µM): 9.22 µM
- IC50 (second compound 3.16 µM): 5.02 µM
- IC50 (second compound 10 µM): 2.51 µM
- viability, T/C [1]: 97.4%
- viability, T/C [2]: 89.3%
- viability, T/C [3]: 92.5%
- viability, T/C [4]: 84.3%
- viability, T/C [5]: 70.9%
- viability, T/C [6]: 60.1%
- viability, T/C [7]: 109%
- viability, T/C [8]: 99.2%
- viability, T/C [9]: 86%
- viability, T/C [10]: 77.6%
- viability, T/C [11]: 70.9%
- viability, T/C [12]: 53.8%
- viability, T/C [13]: 107%
- viability, T/C [14]: 93.9%
- viability, T/C [15]: 77.7%
- viability, T/C [16]: 73.4%
- viability, T/C [17]: 66.6%
- viability, T/C [18]: 54.7%
- viability, T/C [19]: 93.9%
- viability, T/C [20]: 89.8%
- viability, T/C [21]: 85.3%
- viability, T/C [22]: 76.2%
- viability, T/C [23]: 63.9%
- viability, T/C [24]: 49%
- viability, T/C [25]: 84%
- viability, T/C [26]: 86.2%
- viability, T/C [27]: 72%
- viability, T/C [28]: 71.2%
- viability, T/C [29]: 56.5%
- viability, T/C [30]: 39.8%
- viability, T/C [31]: 69.2%
- viability, T/C [32]: 72.6%
- viability, T/C [33]: 63.3%
- viability, T/C [34]: 66%
- viability, T/C [35]: 46%
- viability, T/C [36]: 37.1%

SMILES: COc1cc(C2c3cc4c(cc3C(OC3OC5COC(C)OC5C(O)C3O)C3COC(=O)C23)OCO4)cc(OC)c1O (stereo unspecified) + Cc1[nH]c2ccc(F)cc2c1-c1nc2c3cccnc3c3ncccc3c2[nH]1
- IC50 (second compound 0.0316 µM): > 10 µM
- IC50 (second compound 0.1 µM): > 10 µM
- IC50 (second compound 0.316 µM): > 10 µM
- IC50 (second compound 1 µM): > 10 µM
- IC50 (second compound 3.16 µM): > 10 µM
- IC50 (second compound 10 µM): > 10 µM
- viability, T/C [1]: 118%
- viability, T/C [2]: 90.7%
- viability, T/C [3]: 105%
- viability, T/C [4]: 102%
- viability, T/C [5]: 87.4%
- viability, T/C [6]: 78.1%
- viability, T/C [7]: 110%
- viability, T/C [8]: 92.6%
- viability, T/C [9]: 113%
- viability, T/C [10]: 68.8%
- viability, T/C [11]: 84.1%
- viability, T/C [12]: 76.7%
- viability, T/C [13]: 112%
- viability, T/C [14]: 83.3%
- viability, T/C [15]: 80.3%
- viability, T/C [16]: 87.3%
- viability, T/C [17]: 85.8%
- viability, T/C [18]: 74.1%
- viability, T/C [19]: 91.9%
- viability, T/C [20]: 95.4%
- viability, T/C [21]: 90.5%
- viability, T/C [22]: 87.6%
- viability, T/C [23]: 91.5%
- viability, T/C [24]: 71.2%
- viability, T/C [25]: 81.2%
- viability, T/C [26]: 85.9%
- viability, T/C [27]: 82.7%
- viability, T/C [28]: 82.7%
- viability, T/C [29]: 81.3%
- viability, T/C [30]: 69%
- viability, T/C [31]: 65.9%
- viability, T/C [32]: 74.3%
- viability, T/C [33]: 87%
- viability, T/C [34]: 83.8%
- viability, T/C [35]: 68.7%
- viability, T/C [36]: 64.3%
